# Like-named read-outs stand apart in the source and are kept apart here. Positions of bridges follow the written chain, without caps; N, C: chain ends. Non-standard residues stand in square brackets, D forms with d. Residues, ends and D or L forms follow the SMILES beside them. ξ: configuration not given here. Trp(5-OH) = N[C@@H](Cc1c[nH]c2ccc(O)cc12)C(=O)O; Phe(4-CH2NH2) = NCc1ccc(C[C@H](N)C(=O)O)cc1; Tyr(3-I) = N[C@@H](Cc1ccc(O)c(I)c1)C(=O)O; Phe(3-Cl) = N[C@@H](Cc1cccc(Cl)c1)C(=O)O; Phe(4-F) = N[C@@H](Cc1ccc(F)cc1)C(=O)O; dDopa = N[C@H](Cc1ccc(O)c(O)c1)C(=O)O; ξPhe(βξ-Me) = CC(c1ccccc1)C(N)C(=O)O; Bta = N[C@@H](Cc1csc2ccccc12)C(=O)O; NMeF = CN[C@@H](Cc1ccccc1)C(=O)O; NMeNle = CCCC[C@H](NC)C(=O)O; NMeM = CN[C@@H](CCSC)C(=O)O; NMeA = CN[C@@H](C)C(=O)O; Dap = NC[C@H](N)C(=O)O; ξC = NC(CS)C(=O)O; Sar = CNCC(=O)O
# Tests used:
# [1] = target: T1, LK35.2-hPD-L1 cells / PE-labeled PD-1-Ig (Homo sapiens, UniProt Q9NZQ7); experiment: LK35.2-hPD-L1 cell binding high-content screening assay; type: cell-based; conditions: cluster symbol, read-out: CBA IC50 cluster
# T1 construct: expressed in transfected cells; host or cells: LK35.2 mouse B cell line
# T1 sequence (Q9NZQ7 19-290): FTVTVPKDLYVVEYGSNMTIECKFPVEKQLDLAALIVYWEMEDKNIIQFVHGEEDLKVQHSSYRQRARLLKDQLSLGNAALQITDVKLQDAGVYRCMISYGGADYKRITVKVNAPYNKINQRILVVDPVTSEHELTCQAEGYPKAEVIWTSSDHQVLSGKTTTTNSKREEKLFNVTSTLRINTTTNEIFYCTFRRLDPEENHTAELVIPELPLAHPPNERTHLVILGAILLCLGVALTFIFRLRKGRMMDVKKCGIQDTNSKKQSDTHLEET
# Method in brief: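 Mouse LK35.2 B cells stably over-expressing human PD-L1, cultured overnight, treated with compound plus PE-labeled human PD-1-Ig (1 nM final) in RPMI/10% FCS for 1 h at 37 °C. After washing, bound fluorescence quantified by high-content imaging.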
# Human PD-L1/PD-1 = target: T2, Human PD-L1/PD-1 (Homo sapiens, UniProt Q9NZQ7); experiment: HTRF PD-1-Ig/PD-L1-His binding assay (human PD-L1); conditions: cluster symbol; read-out: HTRF IC50 cluster
# T2 construct: made in house; host or cells: HEK293T
# T2 sequence (Q9NZQ7 with tags, fused parts or gaps): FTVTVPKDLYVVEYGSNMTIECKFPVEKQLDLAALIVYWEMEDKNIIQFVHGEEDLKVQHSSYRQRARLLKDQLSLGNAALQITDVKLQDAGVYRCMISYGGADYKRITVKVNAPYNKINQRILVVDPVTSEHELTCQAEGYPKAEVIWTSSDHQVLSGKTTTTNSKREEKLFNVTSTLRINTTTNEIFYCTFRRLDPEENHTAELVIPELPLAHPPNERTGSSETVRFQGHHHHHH
# Method in brief: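 Soluble Fc-fused PD-1 and His-tagged PD-L1 (truncated before the transmembrane region) were combined in dPBS with 0.1% (w/v) BSA and 0.05% (v/v) Tween-20. Binding was read by HTRF using europium cryptate anti-Ig antibody (1 nM final) and APC anti-His antibody (20 nM final).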
# [2] = cell line of CBA not given (LK35.2-hPD-L1 or 293T-hPD-L1)
# [3] = cell binding assay, cell line not given
SMILES,"IC50 [1, 2]",IC50 (Human PD-L1/PD-1),"IC50 [1, 3]"
CCCC[C@H]1C(=O)N(C)CC(=O)N[C@@H](CC(=O)O)C(=O)N[C@@H](C(C)C)C(=O)N(C)[C@@H](Cc2ccccc2)C(=O)N[C@@H](Cc2c[nH]c3ccc(O)cc23)C(=O)N(C)CC(=O)N[C@@H](Cc2c[nH]c3ccccc23)C(=O)N[C@@H](Cc2ccc(O)cc2)C(=O)N[C@@H](CC(C)C)C(=O)N[C@H](C(=O)NCC(N)=O)CSCC(=O)N[C@@H](Cc2ccccc2)C(=O)N(C)[C@@H](Cc2ccccc2)C(=O)N1C [Example 3148] ({CH2CO}-F[NMeF][NMeNle][Sar]DV[NMeF][Trp(5-OH)][Sar]WYLCG-NH2; thioether N-13),4.78 to 72.9 nM,6.76 to 30.3 nM,
"CCCC[C@H]1C(=O)N(C)CC(=O)N[C@@H](CC(=O)O)C(=O)N[C@@H](C(C)C)C(=O)N(C)[C@@H](Cc2cnc[nH]2)C(=O)N[C@@H](Cc2ccc(O)cc2)C(=O)N(C)CC(=O)N[C@@H](Cc2c[nH]c3ccccc23)C(=O)N[C@@H](Cc2ccc(O)cc2)C(=O)N[C@@H](CC(C)C)C(=O)N[C@H](C(=O)NCC(N)=O)CSCC(=O)N[C@@H](Cc2ccccc2)C(=O)N(C)[C@@H](Cc2cnc[nH]2)C(=O)N1C [Example 3058-A] (HELM PEPTIDE1{[O=C(C[*:3])[*:2]].F.[meH].[CCCC[C@@H](C(=O)[*:2])N(C)[*:1]].[Sar].D.V.[meH].Y.[Sar].W.Y.L.C.G.[am]}$PEPTIDE1,PEPTIDE1,1:R3-14:R3$$$V2.0)",> 74.3 nM,> 30.5 nM,
CCCC[C@H]1C(=O)N(C)CC(=O)N[C@@H](CC(=O)O)C(=O)N[C@@H](C(C)C)C(=O)N(C)[C@@H](Cc2ccccc2)C(=O)N[C@@H](Cc2ccc(O)cc2)C(=O)N(C)CC(=O)N[C@@H](Cc2c[nH]c3ccccc23)C(=O)N[C@H](Cc2ccc(O)c(O)c2)C(=O)N[C@@H](CC(C)C)C(=O)N[C@H](C(=O)NCC(N)=O)CSCC(=O)N[C@@H](Cc2ccccc2)C(=O)N(C)[C@@H](Cc2ccccc2)C(=O)N1C [Example 3579] ({CH2CO}-F[NMeF][NMeNle][Sar]DV[NMeF]Y[Sar]W[dDopa]LCG-NH2; thioether N-13),,6.76 to 30.3 nM,0.158 to 4.71 nM
CCCC[C@H]1C(=O)N(C)[C@@H](CCCC)C(=O)N[C@@H](CCCNC(=N)N)C(=O)N[C@H](C(=O)NCC(N)=O)CSCC(=O)N[C@@H](Cc2ccccc2)C(=O)N(C)[C@@H](C)C(=O)N[C@@H](CO)C(=O)N2CCC[C@H]2C(=O)N[C@@H](Cc2cnc[nH]2)C(=O)N[C@@H](CC(C)C)C(=O)N(C)CC(=O)N[C@@H](Cc2c[nH]c3ccccc23)C(=O)N[C@@H](CO)C(=O)N[C@@H](Cc2c[nH]c3ccccc23)C(=O)N1C [Example 5019] ({CH2CO}-F[NMeA]SPHL[Sar]WSW[NMeNle][NMeNle]RCG-NH2; thioether N-14),,6.76 to 30.3 nM,4.78 to 72.9 nM
CCCC[C@H]1C(=O)N(C)CC(=O)N[C@@H](CC(=O)O)C(=O)N[C@@H](C(C)C)C(=O)N(C)[C@@H](Cc2ccccc2)C(=O)N[C@@H](Cc2ccc(O)c(I)c2)C(=O)N(C)CC(=O)N[C@@H](Cc2c[nH]c3ccccc23)C(=O)N[C@@H](Cc2ccc(O)cc2)C(=O)N[C@@H](CC(C)C)C(=O)N[C@H](C(=O)NCC(N)=O)CSCC(=O)N[C@@H](Cc2ccccc2)C(=O)N(C)[C@@H](Cc2ccccc2)C(=O)N1C [Example 3111] ({CH2CO}-F[NMeF][NMeNle][Sar]DV[NMeF][Tyr(3-I)][Sar]WYLCG-NH2; thioether N-13),4.78 to 72.9 nM,> 30.5 nM,
CCCC[C@H]1C(=O)N(C)[C@@H](CCCC)C(=O)N[C@@H](CCCNC(=N)N)C(=O)N[C@H](C(=O)NCC(N)=O)CSCC(=O)N[C@@H](Cc2ccccc2)C(=O)N(C)[C@@H](C)C(=O)N[C@@H](CC(N)=O)C(=O)N2CCC[C@H]2C(=O)N[C@@H](CCCCN)C(=O)N[C@@H](CC(C)C)C(=O)N(C)CC(=O)N[C@@H](Cc2c[nH]c3ccccc23)C(=O)N[C@@H](CO)C(=O)N[C@@H](Cc2c[nH]c3ccccc23)C(=O)N1C [Example 1077] ({CH2CO}-F[NMeA]NPKL[Sar]WSW[NMeNle][NMeNle]RCG-NH2; thioether N-14),> 74.3 nM,6.76 to 30.3 nM,
CCCC[C@H]1C(=O)N(C)[C@@H](CCCC)C(=O)N[C@@H](CCCNC(=N)N)C(=O)N[C@H](C(=O)NCC(N)=O)CSCC(=O)N[C@@H](Cc2ccccc2)C(=O)N(C)[C@@H](C)C(=O)N[C@@H](CC(N)=O)C(=O)N2CCC[C@H]2C(=O)N[C@@H](Cc2cnc[nH]2)C(=O)N[C@@H](CC(C)C)C(=O)N(C)CC(=O)N[C@@H](Cc2c[nH]c3ccccc23)C(=O)N[C@@H](CN)C(=O)N[C@@H](Cc2c[nH]c3ccccc23)C(=O)N1C [Example 5002] ({CH2CO}-F[NMeA]NPHL[Sar]W[Dap]W[NMeNle][NMeNle]RCG-NH2; thioether N-14),,> 30.5 nM,> 74.3 nM
CCCC[C@H]1C(=O)N(C)CC(=O)N[C@@H](CC(=O)O)C(=O)N[C@@H](C(C)C)C(=O)N(C)[C@@H](Cc2ccccc2)C(=O)N[C@@H](Cc2ccc(CN)cc2)C(=O)N(C)CC(=O)N[C@@H](Cc2csc3ccccc23)C(=O)N[C@@H](Cc2ccc(O)cc2)C(=O)N[C@@H](CC(C)C)C(=O)N[C@H](C(=O)NCC(N)=O)CSCC(=O)N[C@@H](Cc2ccc(F)cc2)C(=O)N(C)[C@@H](Cc2ccccc2)C(=O)N1C [Example 3120] ({CH2CO}-[Phe(4-F)][NMeF][NMeNle][Sar]DV[NMeF][Phe(4-CH2NH2)][Sar][Bta]YLCG-NH2; thioether N-13),0.158 to 4.71 nM,6.76 to 30.3 nM,
"CCCC[C@H]1C(=O)N(C)CC(=O)N[C@@H](CC(=O)O)C(=O)N[C@@H](C(C)C)C(=O)N(C)[C@@H](Cc2ccccc2)C(=O)N[C@@H](Cc2ccc(O)cc2)C(=O)N(C)CC(=O)N[C@@H](CCC(=O)O)C(=O)N[C@@H](Cc2ccc(O)cc2)C(=O)N[C@@H](CC(C)C)C(=O)N[C@H](C(=O)NCC(N)=O)CSCC(=O)N[C@@H](Cc2ccccc2)C(=O)N(C)[C@@H](Cc2ccccc2)C(=O)N1C [Example 3072] (HELM PEPTIDE1{[O=C(C[*:3])[*:2]].F.[meF].[CCCC[C@@H](C(=O)[*:2])N(C)[*:1]].[Sar].D.V.[meF].Y.[Sar].E.Y.L.C.G.[am]}$PEPTIDE1,PEPTIDE1,1:R3-14:R3$$$V2.0)",> 74.3 nM,> 30.5 nM,
CCCC[C@H]1C(=O)N(C)CC(=O)N[C@@H](CC(=O)O)C(=O)N[C@@H](C(C)C)C(=O)N(C)[C@@H](Cc2ccccc2)C(=O)N[C@@H](Cc2ccc(CN)cc2)C(=O)N(C)CC(=O)N[C@@H](Cc2c[nH]c3ccccc23)C(=O)N[C@@H](Cc2ccc(O)cc2)C(=O)N[C@@H](CC(C)C)C(=O)N[C@H](C(=O)NCC(N)=O)CSCC(=O)N[C@@H](Cc2cccc(Cl)c2)C(=O)N(C)[C@@H](Cc2ccccc2)C(=O)N1C [Example 3122] ({CH2CO}-[Phe(3-Cl)][NMeF][NMeNle][Sar]DV[NMeF][Phe(4-CH2NH2)][Sar]WYLCG-NH2; thioether N-13),4.78 to 72.9 nM,6.76 to 30.3 nM,
CCCC[C@H]1C(=O)N(C)[C@@H](CCSC)C(=O)N[C@@H](CCCNC(=N)N)C(=O)NC(C(=O)NCC(N)=O)CSCC(=O)N[C@@H](Cc2ccc(O)cc2)C(=O)N(C)[C@@H](C)C(=O)N[C@@H](CC(N)=O)C(=O)N2CCC[C@H]2C(=O)N[C@@H](CN)C(=O)N[C@@H](CC(C)C)C(=O)N2CCC[C@H]2C(=O)N[C@@H](Cc2c[nH]c3ccccc23)C(=O)N[C@@H](CO)C(=O)N[C@@H](Cc2csc3ccccc23)C(=O)N1C (stereo partly shown) [Example 9082] ({CH2CO}-Y[NMeA]NP[Dap]LPWS[Bta][NMeNle][NMeM]R[ξC]G-NH2; thioether N-14),,0.385 to 6.74 nM,0.158 to 4.71 nM
CCCC[C@H]1C(=O)N(C)[C@@H](CCCC)C(=O)N[C@@H](CCCNC(=N)N)C(=O)NC(C(=O)NCC(N)=O)CSCC(=O)N[C@@H](Cc2ccc(O)cc2)C(=O)N(C)[C@@H](C)C(=O)N[C@@H](CC(N)=O)C(=O)N2CCC[C@H]2C(=O)N[C@@H](Cc2c[nH]cn2)C(=O)NCC(=O)N[C@@H](CC(C)C)C(=O)N2CCC[C@H]2C(=O)N[C@@H](Cc2c[nH]c3ccccc23)C(=O)N[C@@H](CO)C(=O)N[C@@H](Cc2c[nH]c3ccccc23)C(=O)N1C (stereo partly shown) [Example 10516] ({CH2CO}-Y[NMeA]NPHGLPWSW[NMeNle][NMeNle]R[ξC]G-NH2; thioether N-15),,> 30.5 nM,> 74.3 nM
CCCC[C@H]1C(=O)N(C)CC(=O)N[C@@H](CC(=O)O)C(=O)N[C@@H](C(C)C)C(=O)N(C)[C@@H](Cc2ccccc2)C(=O)N[C@@H](Cc2ccc(CN)cc2)C(=O)N(C)CC(=O)N[C@@H](Cc2c[nH]c3ccccc23)C(=O)N[C@@H](Cc2ccc(O)cc2)C(=O)N[C@@H](CC(C)C)C(=O)N[C@H](C(=O)NCC(N)=O)CSCC(=O)N[C@@H](Cc2ccccc2)C(=O)N(C)[C@@H](Cc2ccccc2)C(=O)N1C [Example 3524] ({CH2CO}-F[NMeF][NMeNle][Sar]DV[NMeF][Phe(4-CH2NH2)][Sar]WYLCG-NH2; thioether N-13),,6.76 to 30.3 nM,0.158 to 4.71 nM
CCCC[C@H]1C(=O)N(C)CC(=O)N[C@@H](CC(=O)O)C(=O)N[C@@H](C(C)C)C(=O)N(C)[C@@H](Cc2ccccc2)C(=O)N[C@@H](Cc2ccc(O)cc2)C(=O)N(C)CC(=O)N[C@@H](Cc2c[nH]c3ccccc23)C(=O)N[C@@H](Cc2ccc(O)cc2)C(=O)N[C@@H](CC(C)C)C(=O)N[C@H](C(=O)NCC(N)=O)CSCC(=O)NC(C(C)c2ccccc2)C(=O)N(C)[C@@H](Cc2ccccc2)C(=O)N1C (stereo partly drawn) [Example 3516] ({CH2CO}-[ξPhe(βξ-Me)][NMeF][NMeNle][Sar]DV[NMeF]Y[Sar]WYLCG-NH2; thioether N-13),,> 30.5 nM,> 74.3 nM

# From patent US9850283B2, “Macrocyclic inhibitors of the PD-1/PD-L1 and CD80(B7-1)/PD-L1 protein/protein interactions” (BRISTOL-MYERS SQUIBB COMPANY, priority 2013, dated 2017)
